Experiments:
HUVEC monolayer = test: LPA-treated HUVECs, endothelial monolayer integrity; assay type: cell-based, human; settings: 1 μM or 10 μM, 20 μM LPA 60 min
Description: (§1) Cell lines were exposed to each dose for 1 hr, and then are stimulated with 20 μM LPA for either 5 min or 1 hr as described below. All experiments were conducted in triplicate and analyzed by two independent assessors blinded to both cell line and treatment.
To examine HUVEC monolayer integrity, cells were plated on PDL-coated coverslips (Corning) coated with fibronectin, collagen-1 and gelatin. 50,000 cells were seeded on each coverslip situated in a 24-well plate. Cells were grown for 3 days at 37° C./5% CO2. […] The medium was exchanged by Medium 200 supplemented with 0.1% HSA and 20 μM of LPA (Santa Cruz) and incubated for 60 min.
After LPA stimulation, cells were fixed with 4% paraformaldehyde and stained for actin-phalloidin (ThermoFisher, Waltham, Mass.) and V-Cadherin (Cell Signaling, Danvers, Mass.) and mounted on microscope slides. Coverslips were imaged by fluorescence microscopy and the cell free holes in the monolayer are measured using Image J (freeware; https://imagej.nih.gov/ij/).

[1] = test system: Rho/ROCK activity (MLC2 diphosphorylation) in HUVECs; test: LPA-treated HUVECs, pMLC2 T18/S19 immunoblot; assay type: cell-based, human
Description: as §1
Cells were subjected to biochemical analysis of diphosphorylated MLC2 (Threonine 18/Serine 19 phosphorylation sites) and cofilin (Serine 9 phosphorylation site) using SDS-PAGE and immunoblotting. Cells were plated in 24-well tissue culture plates coated with 70 μg/ml rat collagen-1 (Corning; Corning, N.Y.), and grown for 2 d to 3 d at 37° C./5% CO2 until confluency. […] Then medium was exchanged for Medium 200 supplemented with 0.1% HSA (Sigma-Aldrich) and 20 μM of LPA (Santa Cruz Biotech; Santa Cruz, Calif.) and incubated for 5 min. After LPA stimulation, proteins were extracted from cells by lysis with RIPA buffer supplemented with HALT complete protease/phosphatase inhibitor (ThermoFisher, Waltham, Mass.), reduced and denatured using Laemmli sample buffer (BioRad, Hercules, Calif.)/beta-mercaptoethanol and subjected to SDS-PAGE.
Denatured samples were electrophoresed in reducing 10% Bis-Tris-gels polyacrylamide gels (Novex; Thermo-Fisher, Waltham, Mass.) and were transferred onto 0.25 μm PVDF membranes (EMD Millipore, Billerica, Mass.). Membranes are probed using amti-pMLC2 T18/S19 (1:500; Cell Signaling, Danvers, Mass.) or anti-pCofilin S9 (1:500, Cell Signaling, Danvers, Mass.) and anti-glyceraldehyde 3-phosphate dehydrogenase loading control (GAPDH, 1:10000; Abcam). Protein levels were detected using chemiluminescence substrate (Super Signal West, ThermoFisher, Waltham, Mass.) and images captured using a FluoroChem SP Imaging System.

ROCK1 = test: KINOMEscan kinome screen; settings: percent of negative control binding; first ROCK1 row
Excerpt: The KINOMEscan™ screening platform (DiscoverX, Fremont, Calif.) employs a novel active site-directed competition binding assay to quantitatively measure interactions between test compounds and more than 450 human kinases and disease relevant mutant variants. […] Compounds that bind the kinase active site and directly (sterically) or indirectly (allosterically) prevent kinase binding to the immobilized ligand, will reduce the amount of kinase captured on the solid support. […] Screening “hits” are identified by measuring the amount of kinase captured in test versus control samples by using a quantitative, precise and ultra-sensitive qPCR method that detects the associated DNA label.
Kinase-tagged T7 phage strains were grown in parallel in 24-well blocks in an E. coli host derived from the BL21 strain. E. coli were grown to log-phase and infected with T7 phage from a frozen stock (multiplicity of infection=0.4) and incubated with shaking at 32° C. until lysis (90-150 minutes). The lysates were centrifuged (6,000×g) and filtered (0.2 μm) to remove cell debris. The remaining kinases were produced in HEK-293 cells and subsequently tagged with DNA for qPCR detection (Wein, et al. (2016) Nat. Comm. 7). […] Test compounds were prepared as 40× stocks in 100% DMSO and directly diluted into the assay. All reactions were performed in polypropylene 384-well plates in a final volume of 0.02 ml.

[2] = test system: cynomolgus monkey hepatocytes; test: Metabolism in cultured hepatocytes; assay type: in vitro ADME
[3] = Brain penetration after IV, IP or PO administration in C57BL/6 mice; assay type: in vivo, mouse; settings: IV 5 mg/kg, IP 10 mg/kg, PO 30 mg/kg
Description: To determine the plasma concentrations and pharmacokinetics of the test compounds and test article following a single intravenous (IV) (5 mg/kg), intraperitoneal (IP) (10 mg/kg), or oral dose (PO) (30 mg/kg) administration to C57BL/6 male mice, the following testing [WAS/IS] performed according to the conductions set forth in Table 14.
The test drug is provided once as follows: Each I.V. dosing syringe is weighed loaded and unloaded to at least 4 decimal places. The actual dose (5 mg/kg) administered to the animal is the difference between the loaded and unloaded dosing syringe weights. Each IP dosing syringe is weighed loaded and unloaded to at least 4 decimal places. […]
Following I.V. dose administration, whole brain is collected following cardiocentesis from 4 animals at each of the following time points post-dose: 0.083 hr, 0.5 hr, 2 hr, 6 hr, 12 hr, and 24 hr. […] Whole brain is rinsed in 1×PBS, the tissue weight recorded and snap frozen in pre-labeled tubes using liquid nitrogen. In addition, whole brain from 5 naïve mice is harvested at 24 hr, rinsed in 1×PBS, the tissue weight recorded and snap frozen in pre-labeled tubes using liquid nitrogen.
Samples are analyzed by LC/MS/MS using an Agilent 6410 mass spectrometer coupled with an Agilent 1200 HPLC and a CTC PAL chilled autosampler, all controlled by MassHunter software (Agilent). […]

[4] = SAFETYscan off-target panel, all targets; settings: 10 μM; except 5-HT2b-receptor
Description: The SAFETYscan™ (DiscoverX) is used for rapid testing of any compound against a panel that includes well-known membrane proteins of importance for drug development such as selected voltage-gated ion channels, G-protein coupled receptors, neurotransmitter transporters and also a selected group of purified cellular enzymes.
Cell lines engineered to express individual transmembrane receptor proteins such as the muscarinic acetylcholine receptor or the dopamine D1 receptor were grown in culture in their standard growth medium until reaching confluence. […] The experiment also contains controls for comparison including known agonists and antagonists of the targeted membrane proteins.
For assays using purified enzymes, an enzyme assay is set up in standard reaction buffer and necessary indicators for activity such as co-factors, buffers and synthetic substrates. […] As positive controls, a binding assay using Rho kinase (ROCK) was included in the panel. Other targets in the panel included G-protein coupled receptors, nuclear hormone receptors, intracellular non-kinase enzymes, ion channels, and neurotransmitter transporters. The specific targets were chosen because of their previous known associations with being the source of problematic off-target effects in cellular or whole animal studies.

rat hepatocytes = test: Metabolism in cultured hepatocytes; assay type: in vitro ADME
Description: Test articles were incubated in duplicate rat hepatocytes at 37° C. The reaction contained […] KHB buffer, a pH 7.4. At indicated times (0 min, 15 min, 30 min, 60 min, 120 min), an aliquot was removed from each experimental and control reaction and mixed with an equal volume of ice-cold methanol. Stopped reactions were incubated at least ten minutes at −20° C. The samples were centrifuged to remove precipitated protein, and the supernatants were analyzed by LC-MS/MS.

canine hepatocytes = test: Metabolism in cultured hepatocytes; assay type: in vitro ADME; settings: Dog hepatocytes
[5] = Systolic blood pressure in mice, tail cuff plethysmography; settings: 0.5, 1, 3 mg/kg in drinking water; Example 18, present tense
Description: Three test cohorts of mice are housed with unlimited access to normal chow and drinking water. For the first 5 days, the mice are handled daily to habituate them to contact and their blood pressures measured using a multi-animal tail cuff plethysmography apparatus (MRBP Tail Cuff Blood Pressure System; IITC Life Science; Woodland Hills, Calif.). […] These values serve as the baseline.
The third cohort receives normal, unadulterated drinking water. On day 8, blood pressure is measured for all mice.
After the day 8 blood pressure measurement, drug dosage in the 2 test cohorts is increased to 1 mg/kg-body weight and the cohort continues for 3 days at the new dose. On day 11, blood pressure is again recorded by tail cuff plethysmography for all mice during a 5 min. recording session.
Following the blood pressure recording, ON DAY 11, drug dosages in drinking water of test groups are increased up to 3 mg/kg-body weight and the cohorts continue for 3 days at the new dose. On day 14, blood pressure is recorded by tail cuff plethysmography for all mice during a 5 min. recording session.

[6] = test system: ROCK2 activation (phospho-cofilin); test: Transient MCAO stroke model, phospho-cofilin Western blot left versus right brain; assay type: in vivo, mouse
Description: The murine intraluminal monofilament model of middle cerebral artery occlusion (MCAO) is used on mice in this study. MCAO involves the insertion of a surgical filament into the external carotid artery and threading it forward into the internal carotid artery until the tip occludes the origin of the MCA, resulting in a cessation of blood flow and subsequent brain infarction in the MCA territory. The technique is used herein to model transient occlusion. If the filament is removed after 1 h, reperfusion is achieved (transient MCAO). This study determines the most efficacious dose and route of administration that reduce Rho-kinase 2 (ROCK2) activation following transient MCAO-induced stroke in mice. The pharmacodynamic response is also determined in this study.
Twenty-eight 9-wk old C57BL/6 (Charles River Laboratories) were used in this study. For surgery, the mouse was placed in a supine position on an infrared heating pad. The fur over the ventral neck was shaved and the skin was disinfected with 70% ethanol and povidone iodine. Under a stereo dissecting microscope, a 1 cm midline incision was made on the neck and retractors were used to expose the left common carotid artery (CCA), the external carotid artery (ECA) and the internal carotid artery (ICA). The arteries were carefully dissected to free them from surrounding nerves and fascia. The ECA was dissected further distally and two 8-0 silk sutures are tied around the ECA stump and a vascular clamp was applied at the bifurcation of the CCA into the ECA and ICA. A small incision was made at the end of ECA stump with Vannas-style spring scissors. A blunt 5-0 monofilament suture (Doccol) was inserted into the incision and advanced from the lumen of the ECA into the ICA for a distance of 9-10 mm beyond the bifurcation of CCA to occlude the origin of MCA. For the mouse model, a distance of 9 mm-11 mm rostral to the CCA bifurcation is inserted. After 60 min., the monofilament was removed. The incision was sutured with 4.0 prolene sutures. […] The mouse is allowed to recover on a heating pad until thermoregulation is re-established.
For Western blot analysis, mice were anesthetized using isoflurane and decapitated. […]
20 μL protease inhibitor (Halt, Protease, Fisher Scientific, Pittsburgh, Pa.) and 10 μL phosphatase inhibitor (Fisher Scientific) were added to 1 mL RIPA buffer (Santa Cruz Biotechnology, Dallas, Tex.). […] The protein concentration of each sample was determined using the DC Protein Assay Kit and following the manufacturer's instructions.
The left and right hemispheres of each brain were homogenized and prepared for Western blotting, and the signal of phospho-cofilin was measured quantitatively by densitometry compared to an internal standard, cyclophilin. […]

mouse hepatocytes = test: Metabolism in cultured hepatocytes; assay type: in vitro ADME

SMILES | monolayer integrity after LPA (HUVEC monolayer) | concentration fully abolishing MLC2 diphosphorylation ([1]; 20 μM LPA) [µM] | effect on MLC2 diphosphorylation (pMLC2 T18/S19) ([1]; 1-100 μM 1 hr, 20 μM LPA 5 min) | % Negative Binding, ROCK1 (ROCK1) [%] | ½ Life [2] [min] | penetration into the brain [3] | activity against targets in the total SAFETYscan [4] | ½ Life (rat hepatocytes) [min] | metabolism by hepatocytes (canine hepatocytes) | ½ Life (canine hepatocytes) [min] | effect on average systolic blood pressure [5] | duration of efficacy on phospho-cofilin ([6]; 10 mg/kg after reperfusion, examined 4 hr or 24 hr) | minimal effective levels ([6]; daily repeat dosing) | minimal effective dose to reverse ROCK activation ([6]; single intraperitoneal application, phospho-cofilin left versus right brain) [mg/kg] | ½ Life (mouse hepatocytes) [min]
C[C@@H](N)C1CCN(S(=O)(=O)c2cccc3c(=O)[nH]ccc23)CC1 [1-hydroxy-BA-1049 (R)] | restores monolayer integrity | ≥ 10 | reduce MLC2 diphosphorylation | 0.15 | – | – | – | – | – | – | – | – | – | – | –
C[C@@H](N)C1CCN(S(=O)(=O)c2cccc3cnccc23)CC1 [BA-1049 (R)] | – | – | – | – | 15.3 | able to penetrate the brain by the three routes of administration | no activity against any of the targets in the total SAFETYscan™ | 60 | do not show any detectable metabolism | >480 | little or no effect on average systolic blood pressure | at least 24 hr | less than 1 mg/kg | 1 | 2.2
